Results reported in the NIST ThermoML archive (doi:10.1021/je500513b).

Experiment: mn = molality of the nth substance listed, in mol/kg
Details: for surface tension liquid-gas: Pendant drop shape; for electrical conductivity: 100 kPa, Liquid, Mettler Toledo inLab 710

CCCCCCCCCCCCCC[N+](C)(C)CCC[N+](C)(C)CCCCCCCCCCCCCC.[Br-].[Br-] + O
Details | electrical conductivity [S/m] | surface tension liquid-gas [mN/m]
298.15 K, m1 = 1e-05 | – | 57.45
298.15 K, m1 = 2e-05 | – | 53.65
298.15 K, m1 = 3e-05 | – | 50.48
298.15 K, m1 = 4e-05 | – | 47.51
298.15 K, m1 = 5e-05 | – | 45.48
298.15 K, m1 = 6e-05 | – | 42.44
298.15 K, m1 = 7e-05 | – | 40.27
298.15 K, m1 = 8e-05 | – | 38.27
298.15 K, m1 = 9e-05 | – | 37
298.15 K, m1 = 9.3e-05 | 0.00212 | –
298.15 K, m1 = 9.8e-05 | 0.00224 | –
298.15 K, m1 = 0.0001 | – | 35.52
298.15 K, m1 = 0.000104 | 0.00236 | –
298.15 K, m1 = 0.000111 | 0.0025 | –
298.15 K, m1 = 0.000119 | 0.00264 | –
298.15 K, m1 = 0.00012 | – | 34.27
298.15 K, m1 = 0.000125 | 0.00274 | –
298.15 K, m1 = 0.000132 | 0.00285 | –
298.15 K, m1 = 0.000139 | 0.00294 | –
298.15 K, m1 = 0.00014 | – | 34.18
298.15 K, m1 = 0.000147 | 0.00303 | –
298.15 K, m1 = 0.000156 | 0.00311 | –
298.15 K, m1 = 0.000164 | 0.00318 | –
298.15 K, m1 = 0.00017 | – | 34.06
298.15 K, m1 = 0.000172 | 0.00325 | –
298.15 K, m1 = 0.000182 | 0.00331 | –
298.15 K, m1 = 0.000192 | 0.00338 | –
298.15 K, m1 = 0.0002 | 0.00343 | 33.81
298.15 K, m1 = 0.000208 | 0.00348 | –
298.15 K, m1 = 0.000217 | 0.00352 | –
298.15 K, m1 = 0.000227 | 0.00358 | –
298.15 K, m1 = 0.000238 | 0.00365 | –
298.15 K, m1 = 0.00025 | 0.00372 | –
298.15 K, m1 = 0.0003 | – | 33.92
303.15 K, m1 = 9.8e-05 | 0.00251 | –
303.15 K, m1 = 0.000104 | 0.00267 | –
303.15 K, m1 = 0.000111 | 0.00283 | –
303.15 K, m1 = 0.000119 | 0.003 | –
303.15 K, m1 = 0.000125 | 0.00311 | –
303.15 K, m1 = 0.000132 | 0.00324 | –
303.15 K, m1 = 0.000139 | 0.00337 | –
303.15 K, m1 = 0.000147 | 0.00351 | –
303.15 K, m1 = 0.000156 | 0.00364 | –
303.15 K, m1 = 0.000164 | 0.00373 | –
303.15 K, m1 = 0.000172 | 0.00381 | –
303.15 K, m1 = 0.000182 | 0.0039 | –
303.15 K, m1 = 0.000192 | 0.00399 | –
303.15 K, m1 = 0.0002 | 0.00405 | –
303.15 K, m1 = 0.000208 | 0.00412 | –
303.15 K, m1 = 0.000217 | 0.00418 | –
303.15 K, m1 = 0.000227 | 0.00426 | –
303.15 K, m1 = 0.000238 | 0.00434 | –
303.15 K, m1 = 0.00025 | 0.00443 | –
308.15 K, m1 = 9.3e-05 | 0.0026 | –
308.15 K, m1 = 9.8e-05 | 0.00274 | –
308.15 K, m1 = 0.000104 | 0.00288 | –
308.15 K, m1 = 0.000111 | 0.00302 | –
308.15 K, m1 = 0.000119 | 0.00323 | –
308.15 K, m1 = 0.000125 | 0.00335 | –
308.15 K, m1 = 0.000132 | 0.0035 | –
308.15 K, m1 = 0.000139 | 0.00367 | –
308.15 K, m1 = 0.000147 | 0.00382 | –
308.15 K, m1 = 0.000156 | 0.00398 | –
308.15 K, m1 = 0.000164 | 0.00411 | –
308.15 K, m1 = 0.000172 | 0.00421 | –
308.15 K, m1 = 0.000182 | 0.00434 | –
